Test results taken from patent publication EP4000618A1, “COMBINATION OF AT LEAST ONE INHIBITOR OF THE XC TRANSPORTER WITH AT LEAST ONE INHIBITOR OF MEMBRANE-BOUND CATALASE FOR INHIBITING AND / OR INACTIVATING TUMOR CELLS” (Motz, Manfred, priority 2020, dated 2022).
“Also recorded” adds a separate entry of the source. Structures can show the parent of a compound that is named as a salt.

Test system: humanen Magenkarzinomzellen (MKN-45)
Assay: Apoptosis induction in MKN-45 tumour cells after catalase inhibition; percentage of cells with apoptosis features counted by phase-contrast microscopy
Type: cell-based, human
Conditions: for Effect on the consequence of the 3-AT pretreatment (no lag phase, independence from aquaporins): inhibitor present during 1 h pretreatment with 3-AT (Figur 3B)
Excerpt: Erfindungsgemäß wurden verschiedene Experimente mit humanen Magenkarzinomzellen (MKN-45) durchgeführt. Die experimentellen Einzelheiten der Versuche sind in der Literaturstelle Heinzelmann und Bauer, Biol. Chem. (2010) 391, S. 675-693 detailliert beschrieben. Auf die experimentelle Ausgestaltung wird hiermit ausdrücklich verwiesen.
In der Literaturstelle Heinzelmann und Bauer sind die Herkunft der jeweiligen Zellen, deren Anzuchtbedingungen, die Apoptoseinduktion und deren Messung beschrieben. Die membranständige Katalase wurde mit 3-Aminotriazol (3-AT) gehemmt. Spezifische Inhibitoren, die die Differenzierung zwischen dem reaktiven NO/Peroxynitritweg und dem HOCI-Weg erlauben, sind weiterhin in der Literaturstelle Heinzelmann und Bauer (a.a.o.) offenbart. Bei den einzelnen Auswertungen wurde die Apoptoseinduktion über die Quantifizierung des Prozentsatzes derjenigen Zellen bestimmt, die die Apoptosemerkmale Kernkondensation, Kernfragmentation und/oder Membrane-Blebbing aufwiesen. Die Quantifizierung erfolgte jeweils mit Hilfe eines Phasenkontrast-Umkehrmikroskops.

[1] = inhibitor added to 3-AT, whole 3-AT concentration range (Figur 1A, 1C)
[2] = inhibitor added to 3-AT, higher 3-AT concentration range (Figur 1A, 1B)

`NCCc1ccc(S(=O)(=O)F)cc1` [AEBSF, 4-(2-Aminoethyl)benzenesulfonyl fluoride] was tested, and the “Hemmung der Apoptoseinduktion” value [1] was “gehemmt; also recorded: vollständigen Hemmung der Apoptose” and the “Effect on the consequence of the 3-AT pretreatment (no lag phase, independence from aquaporins)” value was “führt die Vorbehandlung nicht zu der unter A gezeigten Konsequenz”.
For `COc1cccc(C=NCCN=Cc2cccc(OC)c2[O-])c1[O-].[Cl-].[Mn+3]` [EUK-134], the “Hemmung der Apoptoseinduktion” value [2] was “nur in diesem Bereich zur Hemmung; also recorded: hemmt nur die durch höhere Konzentrationen an 3-AT induzierte Apoptose” and the “Effect on the consequence of the 3-AT pretreatment (no lag phase, independence from aquaporins)” value was “führt die Vorbehandlung nicht zu der unter A gezeigten Konsequenz”.
With `Cl.O=S(=O)([O-])c1ccc(-c2c3nc(c(-c4ccc(S(=O)(=O)O)cc4)c4ccc([nH]4)c(-c4ccc(S(=O)(=O)O)cc4)c4nc(c(-c5ccc(S(=O)(=O)O)cc5)c5ccc2[nH]5)C=C4)C=C3)cc1.[Fe]` [FeTPPS, 5-, 10-, 15-, 20-Tetrakis(4-sulfonatophenyl)porphyrinato iron(III) chloride] the “Hemmung der Apoptoseinduktion” value (cells not pretreated, range 3-6 nM 3-AT (Figur 6A)) was “geringfügigen Anteil des NO/Peroxynitritwegs” and the “Hemmung der Apoptoseinduktion” value (inhibitor added to 3-AT, low 3-AT concentration range (Figur 1B)) was “zur Hemmung; also recorded: Hemmung der Apoptose im niedrigeren 3-AT Konzentrationsbereich”.
For `COC(=O)[C@@H](N)CCCNC(=N)N[N+](=O)[O-]` [L-NAME, N-omega-nitro-L-arginine methylester hydrochloride], the “Hemmung der Apoptoseinduktion” value (inhibitor added to 3-AT, low 3-AT concentration range (Figur 1B), hydrochloride) was “zur Hemmung; also recorded: Hemmung der Apoptose im niedrigeren 3-AT Konzentrationsbereich”.
For `OC[C@@H](O)[C@@H](O)[C@H](O)[C@H](O)CO` [Mannitol], the “Hemmung der Apoptoseinduktion” value [1] was “gehemmt; also recorded: Hemmung der Apoptoseinduktion”.
In the case of `[Ag+]` [Silberionen], the “Hemmung der Apoptoseinduktion” value (1 h preincubation with 100 mM 3-AT, wash, 3-AT again with Silberionen (Figur 3A)) is reported as “nicht mehr durch Silberionen zu hemmen”, the “Hemmung der Apoptoseinduktion” value (1 h preincubation without 3-AT, wash, then 3-AT with Silberionen (Figur 3A)) is reported as “daher durch Silberionen zu hemmen” and the “Hemmung der Apoptoseinduktion” value (Silberionen 5 µM added before 3-AT 100 mM (Figur 2A)) is reported as “blockiert die Apoptoseinduktion fast vollständig; also recorded: nur dann vollständig wirkt”. For the same compound, the “Hemmung der Apoptoseinduktion” value (Silberionen 5 µM added later, after 3-AT 100 mM (Figur 2A)) was “wirken schwächer oder gar nicht” and the “Hemmung der Apoptoseinduktion” value (Silberionen 5 µM added to 3-AT concentration series (Figur 1D, 4A)) was “hemmen die Apoptose vollständig; also recorded: durch Silberionen gehemmt; also recorded: blockieren die Apoptoseinduktion vollständig”.
For `O=C(O)c1cc(/N=N/c2ccc(S(=O)(=O)Nc3ccccn3)cc2)ccc1O` [Sulfasalazin], the “Abhängigkeit der Apoptoseinduktion von der Aquaporinwirkung (Hemmbarkeit durch Silberionen)” value (14 h pretreatment with rising concentrations of Sulfasalazin, then 3-AT (Figur 4B-D)) was “ersetzt graduell die Wirkung der Aquaporine; also recorded: in steigendem Umfang von der Aktivität der Aquaporine unabhängig”, the “Synergieeffekt mit 3-AT” value (Sulfasalazin and 3-AT given at the same time (Figur 5B)) was “bleibt dieser Synergieeffekt aus; also recorded: nicht ausreichend für die Induktion eines Synergieeffekts” and the “Absenkung der 3-AT-Konzentration bei gleichbleibendem Effekt” value (after Sulfasalazin pretreatment (Figur 4)) was “ca. zehnfacher Absenkung”. The “Synergieeffekt mit 3-AT” value (pretreatment of the cells with Sulfasalazin, then 3-AT (Figur 5A, 4A vs 4D)) was “konzentrationsabhängig zu einem Synergieeffekt; also recorded: Synergieeffekt zwischen 3-AT- und Sulfasalazinwirkung”, the “Abhängigkeit von der Aquaporinwirkung” value (pretreatment with 100 µM Sulfasalazin, then 3-AT (Figur 4D)) was “vollständig aufgehoben” and the “Signalweg der Apoptoseinduktion beim Synergieeffekt” value (pretreatment with 100 µM Sulfasalazin, then 3-AT, profile with FeTPPS and Taurin (Figur 6B)) was “vollständig durch den NO/Peroxynitritweg bedingt; also recorded: lediglich zu einer Verstärkung des NO/Peroxynitritwegs geführt”.
In the case of `NCCS(=O)(=O)O` [Taurin], the “Hemmung der Apoptoseinduktion” value (Taurin added two hours after 3-AT (Figur 2B)) is reported as “sofortigen Abbruch der Apoptoseinduktion; also recorded: erfolgreichen und sofortigen Hemmung der Apoptoseinduktion”, the “Steigerung der Apoptose” value (cells not pretreated, range 0.7 und 6 mM 3-AT (Figur 6A)) is reported as “Steigerung der Apoptose” and the “Hemmung der Apoptoseinduktion” value [2] is reported as “im höheren Konzentrationsbereich; also recorded: spezifisch Apoptose hemmen, die durch höhere Konzentrationen an 3-AT induziert wurde”.
